Laboratory results taken from US20150210755A1, “ANTI-POLY-N-ACETYL GLUCOSAMINE (PNAG) MONOCLONAL ANTIBODY AND USES THEREOF FOR THE PREVENTION OR TREATMENT OF PNAG EXPRESSING BACTERIAL INFECTION” (SANOFI, priority 2012, published 2015).

Tested on: methicillin sensitive S. aureus (strain MN8)
Assay: Murine lethal septicemia model in immuno-competent mice
Type: in vivo
Conditions: Vancomycin 30 mg/kg
Protocol: Differences in viable bacterial counts between control and drug-treated groups were analyzed by 1-way ANOVA followed by Dunnett's adjustment for multiplicity. For lethal septicemia, differences in survival between control and drug-treated groups were performed using a Log Rank test followed by a Bonferroni-Holm's adjustment for multiplicity

For `CN[C@H](CC(C)C)C(=O)N[C@H]1C(=O)N[C@@H](CC(N)=O)C(=O)N[C@H]2C(=O)N[C@H]3C(=O)N[C@H](C(=O)N[C@H](C(=O)O)c4cc(O)cc(O)c4-c4cc3ccc4O)[C@H](O)c3ccc(c(Cl)c3)Oc3cc2cc(c3O[C@@H]2O[C@H](CO)[C@@H](O)[C@H](O)[C@H]2O[C@H]2C[C@](C)(N)[C@H](O)[C@H](C)O2)Oc2ccc(cc2Cl)[C@H]1O` [Vancomycin], which “% Survival (96 h post-infection)” value is on record?
Its value is 100%.
